Legend:
Type in all cases: cell-based
AKT1 = target: T1, AKT1 (Homo sapiens, UniProt P31749); test: Western Blot, degradation of AKT1 protein in H1975-OR cells; conditions: 24 hours, maximum degradation rate; for Dmax at 1 µM: 1000 nM
T1 construct: AKT1, AKT2, and AKT3 proteins in H1975-OR cells; endogenous in cells; host or cells: H1975-OR (osimertinib-resistant H1975)
Procedure: (§1) Cell line: Non-small cell lung cancer H1975-OR cell line, which is an Osimertinib resistant H1975 cell line, and could be obtained through low dose gradual addition culture. Specific method: H1975 cells were spread in a 10 cm culture dish at a convergence rate of 60-70%, added 50 nM of Osimertinib to the culture medium. After the cell state stabilized, the concentration of Osimertinib was gradually double to 3 μM.
(§2) Conventional Western Blot (immunoblotting) was used for detection, as follows: a certain number of H1975-OR cells were planted on a 96 well plate, adherent cultured in an incubator overnight, and added a certain concentration of compound to act for 24 hours. 1×SDS lysis buffer with protease and phosphatase inhibitors was used to lyse cells. Cell lysates were separated by SDS-PAGE and transferred to PVDF membrane. Then, at room temperature, the PCDF membrane was taken out and immersed in a sealing solution (5% BSA TBS solution containing 0.5% Tween-20) for sealing treatment for 1 hour, and then incubated with a specific primary antibody at 4° C. overnight. The imprints were washed with TBST and incubated with horseradish peroxidase (HRP) labeled secondary antibodies at room temperature for 2 hours. Finally, ECL plus fluorescence detection reagent (Thermo Scientific, Waltham, MA) was used for protein development, and the Amersham Imager 600 system (GE, America) was used for photography. The detection results were processed using ImageJ software to obtain the grayscale value G (Density).

AKT3 = AKT3 (Homo sapiens, UniProt Q9Y243); test: Western Blot, degradation of AKT3 protein in H1975-OR cells; design: endogenous in cells; host or cells: H1975-OR (osimertinib-resistant H1975); conditions: 24 hours, maximum degradation rate; for Dmax at 1 µM: 1000 nM
Procedure: as §1, §2

AKT2 = target: T2, AKT2 (Homo sapiens, UniProt P31751); test: Western Blot, degradation of AKT2 protein in H1975-OR cells; conditions: 24 hours, maximum degradation rate; for Dmax at 1 µM: 1000 nM
T2 construct: AKT1, AKT2, and AKT3 proteins in H1975-OR cells; endogenous in cells; host or cells: H1975-OR (osimertinib-resistant H1975)
Procedure: as §1, §2

H1975OR = test: CCK-8 tumor cell proliferation, H1975OR; conditions: H1975OR cells (Osimertinib resistant), 72 hours
Procedure: as §1
(§3) Tumor cells (see Table 2 to Table 5) were inoculated in 96-well plates in complete culture medium (2000-3000 cells/well). After overnight incubation, the compounds with different concentrations (0.000508 μM-10 μM) were used to treat the cells separately for 72 hours. CCK-8 (Cell Counting Kit 8, Dojindo Laboratories, Kumamoto, Japan) experiment was used to evaluate cell proliferation. GraphPad Prism 5.0 software (La Jolla, CA) was used to calculate the half-maximal inhibitory concentration (IC50) values by fitting the concentration response curve. Each IC50 value was represented as an average value±SD.

H1975 = test: CCK-8 tumor cell proliferation, H1975; conditions: 72 hours
Procedure: as §3

[1] = Homo sapiens, NCI-H1975, H1975 cells

Chain of AKT3 (Q9Y243 whole entry): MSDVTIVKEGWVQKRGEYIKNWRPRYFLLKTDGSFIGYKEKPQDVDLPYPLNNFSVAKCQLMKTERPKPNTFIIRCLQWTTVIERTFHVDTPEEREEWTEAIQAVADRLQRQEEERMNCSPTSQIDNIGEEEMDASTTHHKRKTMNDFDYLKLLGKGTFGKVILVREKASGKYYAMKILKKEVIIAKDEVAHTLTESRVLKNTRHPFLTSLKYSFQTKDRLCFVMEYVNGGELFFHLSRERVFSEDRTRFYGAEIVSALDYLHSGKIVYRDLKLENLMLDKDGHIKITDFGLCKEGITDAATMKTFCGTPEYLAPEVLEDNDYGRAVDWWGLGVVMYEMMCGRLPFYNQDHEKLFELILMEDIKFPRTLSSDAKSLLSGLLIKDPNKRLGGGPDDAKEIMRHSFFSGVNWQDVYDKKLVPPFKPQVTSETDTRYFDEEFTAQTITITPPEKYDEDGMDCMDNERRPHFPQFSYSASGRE
T2 sequence (P31751 whole entry): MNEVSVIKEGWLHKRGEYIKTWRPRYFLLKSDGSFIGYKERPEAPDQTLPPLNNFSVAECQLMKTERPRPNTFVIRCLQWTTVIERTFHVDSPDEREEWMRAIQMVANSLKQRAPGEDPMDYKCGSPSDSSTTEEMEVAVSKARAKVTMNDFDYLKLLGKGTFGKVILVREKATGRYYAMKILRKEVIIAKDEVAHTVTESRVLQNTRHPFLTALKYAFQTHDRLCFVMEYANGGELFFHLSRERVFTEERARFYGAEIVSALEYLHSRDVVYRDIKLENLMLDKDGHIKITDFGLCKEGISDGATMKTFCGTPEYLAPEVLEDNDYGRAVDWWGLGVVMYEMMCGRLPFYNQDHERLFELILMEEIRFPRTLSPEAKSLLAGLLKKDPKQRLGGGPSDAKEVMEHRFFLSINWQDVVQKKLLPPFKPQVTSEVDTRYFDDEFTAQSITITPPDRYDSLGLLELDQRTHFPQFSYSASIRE
T1 sequence (P31749 whole entry): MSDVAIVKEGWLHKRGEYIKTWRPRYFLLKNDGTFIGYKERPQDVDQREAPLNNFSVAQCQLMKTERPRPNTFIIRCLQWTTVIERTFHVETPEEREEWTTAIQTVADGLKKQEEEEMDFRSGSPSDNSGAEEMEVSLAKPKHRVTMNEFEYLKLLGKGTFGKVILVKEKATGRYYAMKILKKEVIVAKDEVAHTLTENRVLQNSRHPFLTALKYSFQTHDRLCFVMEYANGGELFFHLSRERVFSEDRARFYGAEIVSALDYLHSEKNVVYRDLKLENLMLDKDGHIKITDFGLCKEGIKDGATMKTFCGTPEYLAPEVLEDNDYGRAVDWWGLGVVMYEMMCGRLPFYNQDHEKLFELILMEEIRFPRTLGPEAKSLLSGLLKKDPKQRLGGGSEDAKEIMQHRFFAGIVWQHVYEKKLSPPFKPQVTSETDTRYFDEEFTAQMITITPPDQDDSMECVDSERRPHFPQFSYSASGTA

Molecule | Dmax at 1 µM (AKT1) [%] | Dmax at 1 µM (AKT3) [%] | Dmax at 1 µM (AKT2) [%] | IC50 (H1975OR) [µM] | IC50 (H1975; [1]) [µM] | Dmax (%) at 1000 nM AKT1 (AKT1) [%] | Dmax (%) at 1000 nM AKT3 (AKT3) [%] | Dmax (%) at 1000 nM AKT2 (AKT2) [%] | IC50 (H1975; H1975 cells) [µM]
COc1cc(N2CCN(CCCCCCCCCCCCNC(=O)CC34CC5CC(CC(C5)C3)C4)CC2)ccc1Nc1ncc2c(C)cc(=O)n([C@H]3CCC[C@@H](C(=O)NC4CC4)C3)c2n1 [ZX-HYT-21, (1R, 3S)-3-(2-(4-(4-(12-(2-(((3R, 5R, 7R)-adamantan-1-yl)acetylamino)dodecyl)piperazin-1-yl)-2-methoxyphenyl)amino)-5-methyl-7-oxypyridino [2,3-d]pyrimidin-8 (7H)-yl)-N-cyclopropylcyclohexane-1-carboxylamide] | 0 | 6.8 | 0 |  |  |  |  |  | 
COc1cc(OCCOCCCCCCCCCCCCOCCC23CC4CC(CC(C4)C2)C3)ccc1Nc1ncc2c(C)cc(=O)n(-c3cccc(NC(=O)C4CC4)c3)c2n1 [ZX-HYT-38, N-(3-(2-((4-(2-((12-(2-((3R, 5R, 7R)-adamantan-1-yl)ethoxy)dodecyl)oxy)ethoxy)-2-methoxyphenyl)amino)-5-methyl-7-oxypyridino [2,3-d]pyrimidin-8 (7H)-yl)phenyl) cyclopropane formamide] | 0 | 16.2 | 0 |  |  |  |  |  | 
COc1cc(N2CCN(CCCCCCCCCCCCNC(=O)CC34CC5CC(CC(C5)C3)C4)CC2)ccc1Nc1ncc2c(C)cc(=O)n([C@H]3CCC[C@@H](NC(=O)C4CC4)C3)c2n1 [ZX-HYT-23] | 0 | 41.4 | 0 |  |  |  |  |  | 
COc1cc(N2CCN(CCCCCCCCNC(=O)C3CC3)CC2)ccc1Nc1ncc2c(C)cc(=O)n(-c3cccc(NC(=O)C4CC4)c3)c2n1 [ZX-HYT-62] | 28.4 | 18.8 | 15.1 | 0.0487 ± 0.004 | 0.0551 ± 0.0232 |  |  |  | 
COc1cc(N2CCN(CCCCCCCCCCCCNC(=O)CC34CC5CC(CC(C5)C3)C4)CC2)ccc1Nc1ncc2c(C)cc(=O)n(-c3cccc(NCC4CCC4)c3)c2n1 [ZX-HYT-39, 2-((3R, 5R, 7R)-adamantan-1-yl)-N-(12-(4-(4-((8-(3-((cyclobutylmethyl)amino)phenyl)-5-methyl-7)-oxo-7,8-dihydropyridino [2,3-d]pyrimidin-2-yl)amino)-3-methoxyphenyl)piperazin-1-yl) dodecyl) acetamide] | 0 | 55.3 | 51 | 0.0102 ± 0.004 | 0.00919 ± 0.00567 |  |  |  | 
COc1cc(N2CCN(CCCCCCCCCCCCNC(=O)CC34CC5CC(CC(C5)C3)C4)CC2)ccc1Nc1ncc2c(C)cc(=O)n(-c3cccc(NC4CNC4)c3)c2n1 [ZX-HYT-45, 2-((3R, 5R, 7R)-adamantan-1-yl)-N-(12-(4-(4-((8-(3-(azacyclobutane-3-ylamino)phenyl)-5-methyl-7-oxy-7,8-dihydropyridino [2,3-d]pyrimidin-2-yl)amino)-3-methoxyphenyl)piperazin-1-yl)dodecyl) acetamide] | 32.8 | 29.1 | 17.6 | 2.35 ± 0.11 | 2.4 ± 0.226 |  |  |  | 
COc1cc(N2CCN(CCCCCCCCNC(=O)[C@@]34CC5C[C@@](C)(C[C@@](C)(C5)C3)C4)CC2)ccc1Nc1ncc2c(C)cc(=O)n(-c3cccc(NC(=O)C4CC4)c3)c2n1 [ZX-HYT-32] | 0 | 45.2 | 24.3 | 0.21 ± 0.04 | 1.02 ± 0.24 |  |  |  | 
COc1cc(N2CCN(CCCCCCCCNC(=O)C[C@]34CC5C[C@@](C)(C[C@@](C)(C5)C3)C4)CC2)ccc1Nc1ncc2c(C)cc(=O)n(-c3cccc(NC(=O)C4CC4)c3)c2n1 [ZX-HYT-59, N-(3-(2-((4-(4-(8-(2-((1S, 3R, 5S, 7R)-3,5-dimethyladamantan-1-yl)acetamido)octyl)piperazin-1-yl)-2-methoxyphenyl)amino)-5-methyl-7-oxypyridino [2,3-d]pyrimidin-8 (7H)-yl)phenyl) cyclopropanilamide] | 30.3 | 38.9 | 24.7 | 0.0939 ± 0.004 | 0.121 ± 0.0449 |  |  |  | 
COc1cc(N2CCN(CCCCCCCCCCCCNC(=O)CC34CC5CC(CC(C5)C3)C4)CC2)ccc1Nc1ncc2c(C)cc(=O)n([C@H]3CCCN(C(=O)C4CC4)C3)c2n1 [ZX-HYT-22] | 0 | 25 | 0 | 0.00682 | 0.014 |  |  |  | 
N-(3-(2-((4-(4-(12-((2-((3R, 5R, 7R)-adamantan-1-yl) ethyl) amino) dodecyl) piperazin-1-yl)-2-methoxyphenyl) amino)-5-methyl-7-oxypyrano [2,3-d] pyrimidin-8 (7H)-yl) phenyl) cyclopropane formamide [ZX-HYT-29] |  |  |  | 0.98 ± 0.25 |  | 57.51 | 54.7 | 36.43 | 0.98 ± 0.21
COc1cc(N2CCN(CCCCCCCCNC(=O)C3C[C@H]4C=C[C@@H]3C4)CC2)ccc1Nc1ncc2c(C)cc(=O)n(-c3cccc(NC(=O)C4CC4)c3)c2n1 (some centres unmarked) [ZX-HYT-60] | 13 | 18.9 | 0 | 0.107 ± 0.0194 | 0.135 ± 0.0948 |  |  |  | 
COc1cc(N2CCN(CCCCCCCCCCCCNC(=O)CC34CC5CC(CC(C5)C3)C4)CC2)ccc1Nc1ncc2c(C)cc(=O)n([C@H]3CCN(C(=O)C4CC4)C3)c2n1 [ZX-HYT-37] | 0 | 17.5 | 0 | 6.31 ± 0.645 | 4.15 ± 0.462 |  |  |  | 
CCc1cccc(-n2c(=O)cc(C)c3cnc(Nc4ccc(N5CCN(CCCCCCCCCCCCNC(=O)CC67CC8CC(CC(C8)C6)C7)CC5)cc4OC)nc32)c1 [ZX-HYT-16, 2-((3R, 5R, 7R)-adamantan-1-yl)-N-(12-(4-(4-(8-(3-ethylphenyl)-5-methyl-7-oxy-7,8-dihydropyridino [2,3-d]pyrimidin-2-yl)amino)-3-methoxyphenyl)piperazin-1-yl) dodecyl) acetamide] | 0 | 70.3 | 31.4 |  |  |  |  |  | 
COc1cc(N2CCN(CCCCCCCCCCCCNC(=O)CC34CC5CC(CC(C5)C3)C4)CC2)ccc1Nc1ncc2c(C)cc(=O)n(-c3cccc(NC4CCN(C)CC4)c3)c2n1 [ZX-HYT-18, 2-((3R, 5R, 7R)-adamantan-1-yl)-N-(12-(4-(3-methoxy-4-(5-methyl-8-(3-(1-methylpipe-4-yl)amino)phenyl)-7-oxo-7,8-dihydropyridino [2,3-d]pyrimidin-2-yl)amino)phenyl) piperazin-1-yl) dodecyl) acetamide] | 0 | 30.6 | 0 |  |  |  |  |  | 
COc1cc(OCCCCCCCCCCCCNC(=O)CC23CC4CC(CC(C4)C2)C3)ccc1Nc1ncc2c(C)cc(=O)n(-c3cccc(NC(=O)C4CC4)c3)c2n1 [ZX-HYT-28, N-(3-(2-((4-((12-(2-((3R, 5R, 7R)-adamantan-1-yl)acetylamino)dodecyl)oxy)-2-methoxyphenyl)amino)-5-methyl-7-oxypyrimidino [2,3-d]pyrimidin-8 (7H)-yl)phenyl) cyclopropane formamide] |  |  |  | 0.177 | 0.645 |  |  |  | 
